pIC50: −log10 of the molar value. Like-named read-outs stand apart in the source and are kept apart here.
Key:
[1] = molecular target: T1, Cav1.3 L-type Ca channels (Rattus norvegicus, UniProt P27732); assay: FLIPR Fluo-8 calcium assay, Cav1.3 channel inhibition in HEK293 cells; assay type: cell-based; conditions: for pIC50: read-out: IC50 with Cav1.3; for Selectivity: ratio of IC50 Cav1.2 to Cav1.3
T1 construct: expressed in transfected cells; host or cells: HEK293

[2] = molecular target: Cav1.2 L-type Ca channels (Oryctolagus cuniculus, UniProt P15381); assay: FLIPR Fluo-8 calcium assay, Cav1.2 channel inhibition in HEK293 cells
[3] = Table 4, 12 concentration points (0.1 nM~100 μM) in duplicate, read-out: IC50 (μM) Cav1.3
[4] = third library, FLIPR, HEK293, value (±SD), read-out: IC50 (μM) Cav1.3
[5] = IC50 (μM) Cav1.2, Table 4, 12 concentration points (0.1 nM~100 μM) in duplicate
[6] = IC50 (μM) Cav1.2, third library, FLIPR, HEK293, value (±SD)
[7] = IC50 (μM) Cav1.3, third library, FLIPR, HEK293, value (±SD)
[8] = IC50 (μM) CaV1.3, first library, FLIPR, HEK293, value (±SD)
[9] = IC50 (μM) CaV1.2, first library, FLIPR, HEK293, value (±SD)
[10] = first library, FLIPR, HEK293, value (±SD), read-out: IC50 (μM) CaV1.3

T1 sequence (P27732 whole entry): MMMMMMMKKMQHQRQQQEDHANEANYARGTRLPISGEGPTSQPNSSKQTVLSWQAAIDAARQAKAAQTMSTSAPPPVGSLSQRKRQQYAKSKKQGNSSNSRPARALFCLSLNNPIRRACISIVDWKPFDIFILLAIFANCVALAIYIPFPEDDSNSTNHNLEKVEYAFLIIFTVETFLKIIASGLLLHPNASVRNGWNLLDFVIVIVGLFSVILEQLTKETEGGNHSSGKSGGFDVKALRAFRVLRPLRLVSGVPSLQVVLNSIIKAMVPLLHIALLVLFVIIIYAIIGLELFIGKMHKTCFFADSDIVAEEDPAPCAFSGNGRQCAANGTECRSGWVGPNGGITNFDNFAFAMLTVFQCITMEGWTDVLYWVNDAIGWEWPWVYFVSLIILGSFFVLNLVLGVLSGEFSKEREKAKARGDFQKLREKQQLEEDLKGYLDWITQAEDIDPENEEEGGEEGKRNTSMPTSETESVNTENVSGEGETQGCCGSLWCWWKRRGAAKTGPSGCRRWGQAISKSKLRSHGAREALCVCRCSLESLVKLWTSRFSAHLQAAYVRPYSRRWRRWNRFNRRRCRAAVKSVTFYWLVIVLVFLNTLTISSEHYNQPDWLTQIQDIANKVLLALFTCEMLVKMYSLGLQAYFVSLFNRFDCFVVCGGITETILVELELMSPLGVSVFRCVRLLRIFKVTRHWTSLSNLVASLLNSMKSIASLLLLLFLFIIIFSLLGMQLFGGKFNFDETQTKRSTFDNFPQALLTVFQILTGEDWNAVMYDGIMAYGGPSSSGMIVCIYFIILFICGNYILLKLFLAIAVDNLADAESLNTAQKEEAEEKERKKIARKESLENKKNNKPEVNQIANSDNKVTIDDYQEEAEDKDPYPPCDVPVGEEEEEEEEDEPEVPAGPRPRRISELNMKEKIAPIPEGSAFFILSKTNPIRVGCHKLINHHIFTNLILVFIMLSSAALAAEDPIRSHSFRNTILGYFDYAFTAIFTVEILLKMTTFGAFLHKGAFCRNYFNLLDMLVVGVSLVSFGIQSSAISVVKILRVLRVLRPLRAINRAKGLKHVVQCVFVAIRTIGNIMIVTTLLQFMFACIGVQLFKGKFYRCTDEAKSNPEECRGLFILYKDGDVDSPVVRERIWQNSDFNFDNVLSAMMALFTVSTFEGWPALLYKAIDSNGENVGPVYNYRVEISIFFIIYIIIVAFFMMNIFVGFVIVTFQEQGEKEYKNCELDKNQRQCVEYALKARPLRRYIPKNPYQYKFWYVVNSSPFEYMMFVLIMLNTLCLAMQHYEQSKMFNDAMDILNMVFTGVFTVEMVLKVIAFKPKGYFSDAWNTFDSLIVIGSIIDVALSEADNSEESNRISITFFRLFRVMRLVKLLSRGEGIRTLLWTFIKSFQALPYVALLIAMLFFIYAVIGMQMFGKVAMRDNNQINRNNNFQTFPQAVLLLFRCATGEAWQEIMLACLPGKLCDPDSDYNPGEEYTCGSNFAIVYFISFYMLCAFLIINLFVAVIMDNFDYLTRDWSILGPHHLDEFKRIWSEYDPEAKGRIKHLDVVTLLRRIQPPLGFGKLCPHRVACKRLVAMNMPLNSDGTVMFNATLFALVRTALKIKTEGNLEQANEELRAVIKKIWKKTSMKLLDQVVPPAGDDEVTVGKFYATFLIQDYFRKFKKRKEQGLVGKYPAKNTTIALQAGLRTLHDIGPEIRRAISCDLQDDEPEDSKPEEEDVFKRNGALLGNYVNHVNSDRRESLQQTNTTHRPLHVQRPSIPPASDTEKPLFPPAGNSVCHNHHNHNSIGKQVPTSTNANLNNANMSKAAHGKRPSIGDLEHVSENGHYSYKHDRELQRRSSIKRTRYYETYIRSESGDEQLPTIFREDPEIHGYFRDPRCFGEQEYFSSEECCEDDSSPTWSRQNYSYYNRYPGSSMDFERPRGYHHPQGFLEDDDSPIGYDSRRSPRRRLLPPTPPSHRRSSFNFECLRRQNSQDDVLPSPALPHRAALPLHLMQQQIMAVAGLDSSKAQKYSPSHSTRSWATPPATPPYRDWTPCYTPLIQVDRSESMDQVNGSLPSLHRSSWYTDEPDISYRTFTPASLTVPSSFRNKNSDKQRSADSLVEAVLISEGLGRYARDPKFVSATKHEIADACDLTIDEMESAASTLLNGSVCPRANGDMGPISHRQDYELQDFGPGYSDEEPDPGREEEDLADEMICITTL
T1 sequence (P54284 whole entry partner): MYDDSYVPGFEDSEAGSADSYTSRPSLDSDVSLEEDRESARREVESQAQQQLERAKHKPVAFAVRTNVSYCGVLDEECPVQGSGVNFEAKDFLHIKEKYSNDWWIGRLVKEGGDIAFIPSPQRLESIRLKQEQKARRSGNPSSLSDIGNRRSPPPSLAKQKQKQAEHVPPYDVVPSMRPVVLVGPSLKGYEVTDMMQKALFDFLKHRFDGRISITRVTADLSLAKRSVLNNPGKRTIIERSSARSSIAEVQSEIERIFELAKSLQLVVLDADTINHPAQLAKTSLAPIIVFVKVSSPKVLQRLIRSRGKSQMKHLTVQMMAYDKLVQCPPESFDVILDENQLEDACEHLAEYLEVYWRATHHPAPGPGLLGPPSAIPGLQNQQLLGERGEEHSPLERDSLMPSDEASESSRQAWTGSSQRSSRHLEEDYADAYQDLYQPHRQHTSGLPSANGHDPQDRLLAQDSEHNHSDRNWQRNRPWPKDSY
T1 sequence (P54289 25-956 partner limits assumed): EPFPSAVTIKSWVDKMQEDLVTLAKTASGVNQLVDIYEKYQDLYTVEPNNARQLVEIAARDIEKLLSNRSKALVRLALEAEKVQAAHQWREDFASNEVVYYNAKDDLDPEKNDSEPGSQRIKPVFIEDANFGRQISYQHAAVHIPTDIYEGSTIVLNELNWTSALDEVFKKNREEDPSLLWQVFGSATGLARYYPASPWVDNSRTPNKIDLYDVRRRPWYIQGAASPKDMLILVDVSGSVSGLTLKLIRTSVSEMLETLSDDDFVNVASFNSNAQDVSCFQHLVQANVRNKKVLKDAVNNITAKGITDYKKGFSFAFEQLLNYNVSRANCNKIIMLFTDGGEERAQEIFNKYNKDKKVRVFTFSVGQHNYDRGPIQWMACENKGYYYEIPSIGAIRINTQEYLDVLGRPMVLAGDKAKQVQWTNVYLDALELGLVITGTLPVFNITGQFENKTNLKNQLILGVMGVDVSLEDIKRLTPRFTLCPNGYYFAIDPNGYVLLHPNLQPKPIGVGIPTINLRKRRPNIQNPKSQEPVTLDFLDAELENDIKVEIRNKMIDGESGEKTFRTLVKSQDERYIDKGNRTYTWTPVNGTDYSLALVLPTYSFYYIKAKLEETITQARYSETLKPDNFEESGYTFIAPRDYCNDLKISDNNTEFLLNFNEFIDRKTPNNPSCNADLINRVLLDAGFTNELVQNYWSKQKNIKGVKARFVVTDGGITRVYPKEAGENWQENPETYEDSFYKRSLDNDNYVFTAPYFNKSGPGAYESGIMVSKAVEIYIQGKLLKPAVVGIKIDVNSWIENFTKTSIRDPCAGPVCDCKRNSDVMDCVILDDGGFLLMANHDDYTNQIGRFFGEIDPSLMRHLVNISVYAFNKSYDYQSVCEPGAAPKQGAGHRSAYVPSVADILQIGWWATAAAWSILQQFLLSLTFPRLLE
T1 sequence (P54289 957-1103 partner limits assumed): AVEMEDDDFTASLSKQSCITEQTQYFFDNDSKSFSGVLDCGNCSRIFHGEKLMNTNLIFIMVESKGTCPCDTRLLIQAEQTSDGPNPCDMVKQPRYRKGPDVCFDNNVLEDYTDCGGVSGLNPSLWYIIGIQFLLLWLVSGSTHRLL

Row | Compound | IC50 [1, 8] | Selectivity ([1]; first library) | IC50 [2, 9] | also measured
1 | O=C1CC(=O)N([C@@H]2C[C@@H]3CC[C@H]2C3)C(=O)N1CCc1cccc(Cl)c1 (racemic) [Compound 9, N-(3-chlorophenethyl)-N′-(+)-endo-norbornyl-pyrimidine-2,4,6-(1H,3H,5H)-trione] | – | – | – | IC50 [1, 3]: 0.8 µM; pIC50 [1]: 6.10; IC50 [1, 4]: 0.8 µM; IC50 [2, 5]: 20.1 µM; IC50 [2, 6]: 20.1 µM
2 | O=C1CC(=O)N(C2CC3CCC2C3)C(=O)N1CCc1ccc(Cl)cc1 (racemic) [Compound 10, N-(4-chlorophenethyl)-N′-(+)-endo-norbornyl-pyrimidine-2,4,6-(1H,3H,5H)-trione] | – | – | – | IC50 [1, 3]: 0.6 µM; pIC50 [1]: 6.22; IC50 [1, 4]: 0.6 µM; IC50 [2, 5]: 13.5 µM; IC50 [2, 6]: 13.5 µM
3 | CC(Cc1ccccc1)N1C(=O)CC(=O)N(C2CCCC2)C1=O (racemic) [Compound 95] | – | – | – | IC50 [1, 7]: 0.7 µM; Selectivity ([1]; third library): 23.0; IC50 [2, 6]: 16 µM
4 | CC(CN1C(=O)CC(=O)N(C2CCCC2)C1=O)c1ccccc1 (racemic) [Compound 96] | – | – | – | IC50 [1, 7]: 1 µM; Selectivity ([1]; third library): 17.6; IC50 [2, 6]: 16.9 µM
5 | O=C1CC(=O)N([C@H]2C[C@@H]3CC[C@H]2C3)C(=O)N1CCc1cccc(Cl)c1 (racemic) [Compound 112] | – | – | – | IC50 [1, 4]: 1.9 µM; IC50 [2, 6]: 6.3 µM
6 | O=C1CC(=O)N(CCc2ccc(Cl)cc2)C(=O)N1CCc1ccc(Cl)cc1 [Compound 11] | 1.8 µM | 1.2 | 2.1 µM | –
7 | O=C1CC(=O)N(CCc2cccc(Cl)c2)C(=O)N1CCc1ccc(Cl)cc1 [Compound 12] | 1.9 µM | 2.3 | 4.4 µM | –
8 | O=C1CC(=O)N(CCc2ccc(Cl)cc2Cl)C(=O)N1CCc1ccc(Cl)cc1 [Compound 13] | 1.8 µM | 1.5 | 2.8 µM | –
9 | O=C1CC(=O)N(CCc2ccc(Cl)c(Cl)c2)C(=O)N1CCc1ccc(Cl)cc1 [Compound 14] | 1.9 µM | 0.7 | 1.3 µM | –
10 | O=C1CC(=O)N(CCc2c(Cl)cccc2Cl)C(=O)N1CCc1ccc(Cl)cc1 [Compound 15] | 2.7 µM | 0.7 | 1.9 µM | –
11 | O=C1CC(=O)N(CCc2ccc(Br)cc2)C(=O)N1CCc1ccc(Cl)cc1 [Compound 16] | 1.6 µM | 1.3 | 2.1 µM | –
12 | Cc1ccc(CCN2C(=O)CC(=O)N(CCc3ccc(Cl)cc3)C2=O)cc1 [Compound 17] | 1.1 µM | 6.7 | 7.1 µM | –
13 | O=C1CC(=O)N(CCc2ccc(Cl)cc2)C(=O)N1CCc1ccc(F)cc1 [Compound 18] | 1.1 µM | 3.1 | 3.3 µM | –
14 | O=C1CC(=O)N(CCc2cccc(F)c2)C(=O)N1CCc1ccc(Cl)cc1 [Compound 19] | 1.9 µM | 1.5 | 2.8 µM | –
15 | O=C1CC(=O)N(CCc2cccc(C(F)(F)F)c2)C(=O)N1CCc1ccc(Cl)cc1 [Compound 20] | 0.4 µM | 6.2 | 2.8 µM | –
16 | CC(CN1C(=O)CC(=O)N(CCc2ccc(Cl)cc2)C1=O)c1ccccc1 (stereo not drawn) [Compound 21] | 1.3 µM | 5.0 | 6.2 µM | –
17 | O=C1CC(=O)N(Cc2cccc([N+](=O)[O-])c2)C(=O)N1CCc1ccc(Cl)cc1 [Compound 22] | 21.2 µM | 0.4 | 9.5 µM | –
18 | O=C1CC(=O)N(CCc2ccc([N+](=O)[O-])cc2)C(=O)N1CCc1ccc(Cl)cc1 [Compound 23] | – | 0.8 | – | IC50 [1, 10]: 3.4 µM; pIC50 [2]: 5.57
19 | O=C1CC(=O)N(CCc2cccc([N+](=O)[O-])c2)C(=O)N1CCc1ccc(Cl)cc1 [Compound 24] | 2.7 µM | 1.0 | 2.6 µM | –
20 | O=C1CC(=O)N(Cc2ccc(Cl)cc2)C(=O)N1CCc1ccc(Cl)cc1 [Compound 25] | 2.1 µM | 0.9 | 1.9 µM | –
21 | O=C1CC(=O)N(CCc2ccc(Cl)cc2)C(=O)N1CCCCc1ccccc1 [Compound 26] | 0.9 µM | 0.9 | 0.8 µM | –
22 | O=C1CC(=O)N(CCc2ccc(Cl)cc2)C(=O)N1CCCc1ccccc1 [Compound 27] | 1.1 µM | 1.9 | 2.1 µM | –
23 | CCCCCCCCN1C(=O)CC(=O)N(CCc2ccc(Cl)cc2)C1=O [Compound 28] | 1.5 µM | 1.9 | 2.8 µM | –
24 | O=C1CC(=O)N(C2CCCC2)C(=O)N1CCc1ccc(Cl)cc1 [Compound 29] | 1.4 µM | 16.4 | 22.4 µM | –
25 | O=C1CC(=O)N(C2CCCc3ccccc32)C(=O)N1CCc1ccc(Cl)cc1 (stereo not drawn) [Compound 30] | 5.6 µM | 2.3 | 12.8 µM | –
26 | O=C1CC(=O)N(C2Cc3ccccc3C2)C(=O)N1CCc1ccc(Cl)cc1 [Compound 31] | 1.3 µM | 2.2 | 3 µM | –

Row | Compound | IC50 [1, 8] | Selectivity ([1]; first library) | IC50 [2, 9] | also measured
27 | O=C1CC(=O)N(C2CCc3ccccc32)C(=O)N1CCc1ccc(Cl)cc1 (stereo not drawn) [Compound 32] | 8.4 µM | 1.7 | 14.5 µM | –
28 | O=C1CC(=O)N(CCc2ccc3ccccc3c2)C(=O)N1CCc1ccc(Cl)cc1 [Compound 33] | 1.1 µM | 1.2 | – | pIC50 [2]: 5.85
29 | COC(=O)CN1C(=O)CC(=O)N(CCc2ccc(Cl)cc2)C1=O [Compound 34] | 108 µM | – | – | –
30 | COC(=O)[C@H](C)N1C(=O)CC(=O)N(CCc2ccc(Cl)cc2)C1=O [Compound 35] | 77.7 µM | 1.1 | 88.2 µM | –
31 | COC(=O)[C@H](CC(C)C)N1C(=O)CC(=O)N(CCc2ccc(Cl)cc2)C1=O [Compound 36] | 20.6 µM | 0.8 | 17.1 µM | –
32 | C=CCOC(=O)[C@H](Cc1ccccc1)N1C(=O)CC(=O)N(CCc2ccc(Cl)cc2)C1=O [Compound 37] | 9.4 µM | 1.0 | 9.1 µM | –
33 | O=C1CC(=O)N(CCc2cccc(Cl)c2)C(=O)N1CCCCc1ccccc1 [Compound 38] | 1.3 µM | 4.9 | 6.2 µM | –
34 | O=C1CC(=O)N(CCc2ccc(Cl)c(Cl)c2)C(=O)N1CCCCc1ccccc1 [Compound 39] | 1.3 µM | 2.3 | 3.1 µM | –
35 | O=C1CC(=O)N(CCc2ccc(Br)cc2)C(=O)N1CCCCc1ccccc1 [Compound 40] | 1.1 µM | 1.9 | 2 µM | –
36 | Cc1ccc(CCN2C(=O)CC(=O)N(CCCCc3ccccc3)C2=O)cc1 [Compound 41] | 1.1 µM | 14.1 | 15.5 µM | –
37 | O=C1CC(=O)N(CCc2cccc(F)c2)C(=O)N1CCCCc1ccccc1 [Compound 42] | 1.6 µM | 3.3 | 5.3 µM | –
38 | O=C1CC(=O)N(CCc2cccc(C(F)(F)F)c2)C(=O)N1CCCCc1ccccc1 [Compound 43] | 0.5 µM | 2.3 | 1.1 µM | –
39 | CC(CN1C(=O)CC(=O)N(CCCCc2ccccc2)C1=O)c1ccccc1 (stereo not drawn) [Compound 44] | 2.1 µM | 7.7 | 15.8 µM | –
40 | O=C1CC(=O)N(Cc2ccc([N+](=O)[O-])cc2)C(=O)N1CCCCc1ccccc1 [Compound 45] | 7.7 µM | 0.6 | 4.4 µM | –
41 | O=C1CC(=O)N(CCc2ccc([N+](=O)[O-])cc2)C(=O)N1CCCCc1ccccc1 [Compound 46] | 3.5 µM | 1.2 | 4.1 µM | –
42 | O=C1CC(=O)N(CCc2cccc([N+](=O)[O-])c2)C(=O)N1CCCCc1ccccc1 [Compound 47] | 3 µM | 1.0 | 3 µM | –
43 | O=C1CC(=O)N(Cc2ccc(Cl)cc2)C(=O)N1CCCCc1ccccc1 [Compound 48] | 2.1 µM | 3.7 | 7.7 µM | –
44 | O=C1CC(=O)N(CCCc2ccccc2)C(=O)N1CCCCc1ccccc1 [Compound 49] | – | 2.0 | 2.6 µM | IC50 [1, 10]: 1.3 µM
45 | O=C1CC(=O)N(C2CCCc3ccccc32)C(=O)N1CCCCc1ccccc1 (stereo not drawn) [Compound 50] | 36.5 µM | 0.9 | 34.1 µM | –
46 | O=C1CC(=O)N(C2Cc3ccccc3C2)C(=O)N1CCCCc1ccccc1 [Compound 51] | – | 1.5 | 4.9 µM | IC50 [1, 10]: 3.3 µM
47 | O=C1CC(=O)N(C2CCc3ccccc32)C(=O)N1CCCCc1ccccc1 (stereo not drawn) [Compound 52] | 5.3 µM | 1.1 | 5.7 µM | –
48 | O=C1CC(=O)N(CCc2ccc3ccccc3c2)C(=O)N1CCCCc1ccccc1 [Compound 53] | 1.9 µM | 1.3 | 2.5 µM | –
49 | O=C1CC(=O)N(CCc2ccc(Cl)c(Cl)c2)C(=O)N1CCCc1ccccc1 [Compound 54] | 4.3 µM | 1.6 | 6.9 µM | –
50 | O=C1CC(=O)N(CCc2ccc(F)cc2)C(=O)N1CCCc1ccccc1 [Compound 55] | – | 1.7 | 2.2 µM | IC50 [1, 10]: 1.3 µM
51 | CN1C(=O)CC(=O)N(Cc2cccc([N+](=O)[O-])c2)C1=O [Compound 69] | – | – | – | pIC50 [2]: 3.78
52 | O=C1CC(=O)N(CCc2cccc([N+](=O)[O-])c2)C(=O)N1CCc1cccc([N+](=O)[O-])c1 [Compound 70] | – | – | – | pIC50 [2]: 3.76
